Measurements published in US20260285850A1, “SUBSTITUTED OXAZOLIDINONES AND IMIDAZOLINONES AS HERBICIDES” (FMC CORPORATION, priority 2023, published 2026).

Key:
Format in all cases: in vivo
[1] = test system: barnyardgrass (Echinochloa crus-galli); assay: Test A preemergence soil spray, visual injury rating 0-100; conditions: 10 days, 0 = no effect, 100 = complete control
In short: (§1)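 Visual injury, scored 0-100 (100 = complete control) against untreated plants, 10 days after greenhouse treatment. Test chemicals in surfactant-containing non-phytotoxic solvent were applied in loam soil and sand, as a preemergence soil spray on seeds or postemergence to plants at the one- to two-leaf stage.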

[2] = test system: blackgrass (Alopecurus myosuroides); assay: as above; conditions: 10 days, 0 = no effect, 100 = complete control
In short: as §1

[3] = test system: corn (Zea mays); assay: as above; conditions: 10 days, 0 = no effect, 100 = complete control
In short: as §1

[4] = test system: green foxtail (Setaria viridis); assay: as above; conditions: 10 days, 0 = no effect, 100 = complete control
In short: as §1

[5] = test system: kochia (Bassia scoparia); assay: as above; conditions: 10 days, 0 = no effect, 100 = complete control
In short: as §1

[6] = test system: oat, wild (wild oat, Avena fatua); assay: as above; conditions: 10 days, 0 = no effect, 100 = complete control
In short: as §1

[7] = test system: palmer (palmer amaranth, palmer pigweed, Amaranthus palmeri); assay: as above; conditions: 10 days, 0 = no effect, 100 = complete control
In short: as §1

[8] = test system: ragweed (common ragweed, Ambrosia artemisiifolia); assay: as above; conditions: 10 days, 0 = no effect, 100 = complete control
In short: as §1

[9] = test system: ryegrass, Italian (italian ryegrass, Lolium multiflorum); assay: as above; conditions: 10 days, 0 = no effect, 100 = complete control
In short: as §1

[10] = test system: soybean (Glycine max); assay: as above; conditions: 10 days, 0 = no effect, 100 = complete control
In short: as §1

[11] = test system: wheat (Triticum aestivum); assay: as above; conditions: 10 days, 0 = no effect, 100 = complete control
In short: as §1

[12] = test system: barnyardgrass (Echinochloa crus-galli); assay: Test A postemergence application, visual injury rating 0-100; conditions: 10 days
In short: as §1

[13] = test system: blackgrass (Alopecurus myosuroides); assay: as above; conditions: 10 days
In short: as §1

[14] = test system: corn (Zea mays); assay: as above; conditions: 10 days
In short: as §1

[15] = test system: galium (catchweed bedstraw, Galium aparine); assay: as above; conditions: 10 days
In short: as §1

[16] = test system: green foxtail (Setaria viridis); assay: as above; conditions: 10 days
In short: as §1

[17] = test system: horseweed (Erigeron canadensis); assay: as above; conditions: 10 days
In short: as §1

[18] = test system: kochia (Bassia scoparia); assay: as above; conditions: 10 days
In short: as §1

[19] = test system: oat, wild (wild oat, Avena fatua); assay: as above; conditions: 10 days
In short: as §1

[20] = test system: palmer (palmer amaranth, palmer pigweed, Amaranthus palmeri); assay: as above; conditions: 10 days
In short: as §1

[21] = test system: ragweed (common ragweed, Ambrosia artemisiifolia); assay: as above; conditions: 10 days
In short: as §1

[22] = test system: ryegrass, Italian (italian ryegrass, Lolium multiflorum); assay: as above; conditions: 10 days
In short: as §1

[23] = test system: soybean (Glycine max); assay: as above; conditions: 10 days
In short: as §1

[24] = test system: wheat (Triticum aestivum); assay: as above; conditions: 10 days
In short: as §1

[25] = test system: barnyardgrass (Echinochloa crusgalli); assay: Test B flooded paddy test, visual plant response rating 0-100; conditions: 250 g ai/ha, Flood, applied to paddy water, evaluated after 13 days
In short: (§2)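 Compounds applied to standing paddy water (3 cm above soil, maintained for the test duration) on 2-leaf-stage plants; visual rating vs controls at 13 days, greenhouse.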

[26] = test system: ducksalad (Heteranthera limosa); assay: as above; conditions: 250 g ai/ha, Flood, applied to paddy water, evaluated after 13 days
In short: as §2

[27] = test system: rice (Oryza sativa); assay: as above; conditions: 250 g ai/ha, Flood, applied to paddy water, evaluated after 13 days
In short: as §2

[28] = test system: sedge, umbrella (small-flower umbrella sedge, Cyperus difformis); assay: as above; conditions: 250 g ai/ha, Flood, applied to paddy water, evaluated after 13 days
In short: as §2

[29] = 31 g ai/ha, postemergence, 0 = no effect, 100 = complete control
[30] = Postemergence, 125 g ai/ha, 0 is no effect, 100 is complete control

Q: CC1(C(=O)NC2C=CC(C(=O)OC3CCCC3)C2)CN(c2cc(F)cc(F)c2)C(=O)O1 (stereo not shown) [Compound 57] was tested. Which “Barnyardgrass plant response rating (0-100)” value ([1]; 31 g ai/ha) did it give?
A: 50

Q: And the “Barnyardgrass plant response rating (0 to 100 scale)” value ([1]; 125 g ai/ha)?
A: 100

Q: What about the “Blackgrass plant response rating (0-100)” value ([2]; 31 g ai/ha) of the same molecule?
A: 70

Q: And the “Blackgrass plant response rating (0 to 100 scale)” value ([2]; 125 g ai/ha)?
A: 90

Q: And the “Corn plant response rating (0-100)” value ([3]; 31 g ai/ha)?
A: 10

Q: What about the “Corn plant response rating (0 to 100 scale)” value ([3]; 125 g ai/ha) of the same molecule?
A: 90

Q: And the “Foxtail, Green plant response rating (0-100)” value ([4]; 31 g ai/ha)?
A: 0

Q: What about the “Foxtail, Green plant response rating (0 to 100 scale)” value ([4]; 125 g ai/ha) of the same molecule?
A: 50

Q: And the “Kochia plant response rating (0-100)” value ([5]; 31 g ai/ha)?
A: 0

Q: And the “Kochia plant response rating (0 to 100 scale)” value ([5]; 125 g ai/ha)?
A: 90

Q: And the “Oat, Wild plant response rating (0-100)” value ([6]; 31 g ai/ha)?
A: 90

Q: And the “Oat, Wild plant response rating (0 to 100 scale)” value ([6]; 125 g ai/ha)?
A: 90

Q: What about the “Amaranth, Palmer plant response rating (0-100)” value ([7]; 31 g ai/ha) of the same molecule?
A: 10

Q: And the “Amaranth, Palmer plant response rating (0 to 100 scale)” value ([7]; 125 g ai/ha)?
A: 70

Q: What about the “Ragweed plant response rating (0-100)” value ([8]; 31 g ai/ha) of the same molecule?
A: 0

Q: What about the “Ragweed plant response rating (0 to 100 scale)” value ([8]; 125 g ai/ha) of the same molecule?
A: 0

Q: What about the “Ryegrass, Italian plant response rating (0-100)” value ([9]; 31 g ai/ha) of the same molecule?
A: 50

Q: What about the “Ryegrass, Italian plant response rating (0 to 100 scale)” value ([9]; 125 g ai/ha) of the same molecule?
A: 100

Q: And the “Soybean plant response rating (0-100)” value ([10]; 31 g ai/ha)?
A: 50

Q: And the “Soybean plant response rating (0 to 100 scale)” value ([10]; 125 g ai/ha)?
A: 80

Q: What about the “Wheat plant response rating (0-100)” value ([11]; 31 g ai/ha) of the same molecule?
A: 90

Q: And the “Wheat plant response rating (0 to 100 scale)” value ([11]; 125 g ai/ha)?
A: 100

Q: And the “Barnyardgrass plant response rating (0-100)” value [12, 29]?
A: 100

Q: What about the “Barnyardgrass plant response rating (0 to 100 scale)” value [12, 30] of the same molecule?
A: 100

Q: And the “Blackgrass plant response rating (0-100)” value [13, 29]?
A: 90

Q: And the “Blackgrass plant response rating (0 to 100 scale)” value [13, 30]?
A: 90

Q: And the “Corn plant response rating (0-100)” value [14, 29]?
A: 90

Q: What about the “Corn plant response rating (0 to 100 scale)” value [14, 30] of the same molecule?
A: 100

Q: And the “Galium plant response rating (0-100)” value [15, 29]?
A: 80

Q: And the “Galium plant response rating (0 to 100 scale)” value [15, 30]?
A: 80

Q: What about the “Foxtail, Green plant response rating (0-100)” value [16, 29] of the same molecule?
A: 30

Q: What about the “Foxtail, Green plant response rating (0 to 100 scale)” value [16, 30] of the same molecule?
A: 90

Q: What about the “Horseweed plant response rating (0-100)” value [17, 29] of the same molecule?
A: 0

Q: What about the “Horseweed plant response rating (0 to 100 scale)” value [17, 30] of the same molecule?
A: 60

Q: What about the “Kochia plant response rating (0-100)” value [18, 29] of the same molecule?
A: 80

Q: And the “Kochia plant response rating (0 to 100 scale)” value [18, 30]?
A: 80

Q: What about the “Oat, Wild plant response rating (0-100)” value [19, 29] of the same molecule?
A: 90

Q: What about the “Oat, Wild plant response rating (0 to 100 scale)” value [19, 30] of the same molecule?
A: 90

Q: And the “Amaranth, Palmer plant response rating (0-100)” value [20, 29]?
A: 20

Q: What about the “Amaranth, Palmer / Pigweed, Palmer plant response rating (0 to 100 scale)” value [20, 30] of the same molecule?
A: 70

Q: What about the “Ragweed plant response rating (0-100)” value [21, 29] of the same molecule?
A: 40

Q: What about the “Ragweed plant response rating (0 to 100 scale)” value [21, 30] of the same molecule?
A: 60

Q: What about the “Ryegrass, Italian plant response rating (0-100)” value [22, 29] of the same molecule?
A: 90

Q: And the “Ryegrass, Italian plant response rating (0 to 100 scale)” value [22, 30]?
A: 90

Q: And the “Soybean plant response rating (0-100)” value [23, 29]?
A: 60

Q: And the “Soybean plant response rating (0 to 100 scale)” value [23, 30]?
A: 70

Q: What about the “Wheat plant response rating (0-100)” value [24, 29] of the same molecule?
A: 90

Q: And the “Wheat plant response rating (0 to 100 scale)” value [24, 30]?
A: 90

Q: And the “Plant response rating, Barnyardgrass (0 to 100 scale, 0 is no effect and 100 is complete control)” value [25]?
A: 90

Q: What about the “Plant response rating, Ducksalad (0 to 100 scale, 0 is no effect and 100 is complete control)” value [26] of the same molecule?
A: 100

Q: And the “Plant response rating, Rice (0 to 100 scale, 0 is no effect and 100 is complete control)” value [27]?
A: 20

Q: And the “Plant response rating, Sedge, Umbrella (0 to 100 scale, 0 is no effect and 100 is complete control)” value [28]?
A: 55
